{"source": "patent US20160084855A1", "about": "“Compositions and Methods for Modulation and Detection of Immune and Inflammatory Responses” (UNIVERSITY OF CONNECTICUT, priority 2013, published 2016)", "key": {"CCL2": {"system": "CCL2", "test": "Serum CCL2 by ELISA after injection of lipid into mice", "format": "in vivo, mouse", "details": "four hours", "experimental": "Lipid 654 was injected intraperitoneally (i.p.) into mice and three to four hours later serum was drawn and analyzed for levels of CCL2 via ELISA. Both female wild type (WT) C57BL/6 mice and female TLR2-deficient (TLR2−/−) mice were injected i.p. with either DMSO (vehicle control; VC) or Lipid 654. Three to four hours later, serum was drawn from these mice and analyzed for levels of CCL2.\nIn vivo assays: Wild-type (WT) C57BL/6 mice or TLR2^−/− mice were injected intraperitoneally (i.p.) or intravenously (i.v.) with vehicle control or specific lipids. Four hours later, blood samples were obtained from mice, and the mice were euthanized. Serum was separated from the blood samples and frozen at −80° C. until analysis. Serum samples were analyzed for levels of CCL2 by ELISA (R&D, Minneapolis, Minn.).\nLipid 654 was injected i.p. in 50% DMSO and lipid 430 was injected i.v. in phosphate-buffered saline (PBS). WT female C57BL/6 mice and TLR2^−/− female mice were injected with either vehicle, lipid 654, or lipid 430. Four hours later, serum was recovered from these mice and analyzed for levels of CCL2. […] The same was true for lipid 430."}, "human TLR4": {"target": "T1, human TLR4 (Homo sapiens, UniProt O00206+Q9Y6Y9)", "T1 construct": "host or cells: HEK293", "T1 sequence (O00206 24-839)": "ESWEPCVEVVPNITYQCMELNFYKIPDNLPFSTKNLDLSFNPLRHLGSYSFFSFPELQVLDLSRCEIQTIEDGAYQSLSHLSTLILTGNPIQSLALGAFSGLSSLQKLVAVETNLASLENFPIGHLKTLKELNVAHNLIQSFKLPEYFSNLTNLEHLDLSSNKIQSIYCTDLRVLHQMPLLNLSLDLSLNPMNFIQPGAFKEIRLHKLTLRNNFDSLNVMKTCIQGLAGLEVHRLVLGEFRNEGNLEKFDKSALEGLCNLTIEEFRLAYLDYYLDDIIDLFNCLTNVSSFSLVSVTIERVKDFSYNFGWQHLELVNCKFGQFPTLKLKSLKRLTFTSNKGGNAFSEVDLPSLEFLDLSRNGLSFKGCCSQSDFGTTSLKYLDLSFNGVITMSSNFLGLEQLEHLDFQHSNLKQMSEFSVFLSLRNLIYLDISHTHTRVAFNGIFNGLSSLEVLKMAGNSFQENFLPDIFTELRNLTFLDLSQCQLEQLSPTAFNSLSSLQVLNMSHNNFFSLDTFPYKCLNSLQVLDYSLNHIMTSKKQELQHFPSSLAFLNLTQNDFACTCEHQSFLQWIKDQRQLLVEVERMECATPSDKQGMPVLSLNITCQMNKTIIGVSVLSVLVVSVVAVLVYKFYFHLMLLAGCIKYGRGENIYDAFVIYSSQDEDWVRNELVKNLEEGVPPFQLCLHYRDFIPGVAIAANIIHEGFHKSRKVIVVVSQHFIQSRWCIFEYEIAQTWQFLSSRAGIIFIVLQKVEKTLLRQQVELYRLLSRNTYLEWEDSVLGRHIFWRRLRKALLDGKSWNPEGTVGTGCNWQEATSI", "T1 sequence (Q9Y6Y9 17-160 limits assumed)": "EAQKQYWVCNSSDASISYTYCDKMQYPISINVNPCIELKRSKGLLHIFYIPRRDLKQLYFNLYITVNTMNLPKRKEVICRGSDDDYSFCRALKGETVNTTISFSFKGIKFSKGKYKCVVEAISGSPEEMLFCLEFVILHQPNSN", "test": "HEK293 cells transfected with human TLR4, CD14 (MD-2) and SEAP reporter", "format": "cell-based", "details": "24 hours; for Activation of TLR4-expressing HEK293 cells: Example 23, lipids 0.69 μg/ml, LPS 1 μg/ml", "experimental": "(§1) Cell lines and assays: Human embryonic kidney cells (HEK293 cells), either nontransfected or transfected with human TLR2 or human TLR4 and stably expressing MD-2 and CD14, were purchased from InvivoGen. Cells were cultured in Dulbecco's modified Eagle's medium (DMEM; Gibco) containing 4.5 g/liter 1-glucose and 10% fetal bovine serum (FBS). The activities of specific TLR agonists were measured through a colorimetric assay for the secretory embryonic alkaline phosphatase (SEAP), a reporter gene that is linked to NF-κB activation. Measurement of SEAP activity using the Quanti-blue substrate (InvivoGen) after TLR agonist treatment was carried out in test medium (DMEM, 10% FBS) without antibiotics. NF-κB activation was expressed as a response ratio for each stimulus relative to SEAP activity in unstimulated (vehicle control) cells. For in vitro testing, all lipid preparations tested were solubilized in a 50% mixture of dimethyl sulfoxide (DMSO)-water (approximately 1.11% DMSO in the final culture medium).\nTo test whether lipid 654 and lipid 430 can function as ligands for TLR4, HEK293 cells transfected with the human TLR4, CD14, and MD-2 genes but not expressing TLR2 were utilized."}, "human TLR2": {"target": "T2, human TLR2 (Homo sapiens, UniProt O60603)", "T2 construct": "host or cells: HEK293", "T2 sequence (O60603 21-784)": "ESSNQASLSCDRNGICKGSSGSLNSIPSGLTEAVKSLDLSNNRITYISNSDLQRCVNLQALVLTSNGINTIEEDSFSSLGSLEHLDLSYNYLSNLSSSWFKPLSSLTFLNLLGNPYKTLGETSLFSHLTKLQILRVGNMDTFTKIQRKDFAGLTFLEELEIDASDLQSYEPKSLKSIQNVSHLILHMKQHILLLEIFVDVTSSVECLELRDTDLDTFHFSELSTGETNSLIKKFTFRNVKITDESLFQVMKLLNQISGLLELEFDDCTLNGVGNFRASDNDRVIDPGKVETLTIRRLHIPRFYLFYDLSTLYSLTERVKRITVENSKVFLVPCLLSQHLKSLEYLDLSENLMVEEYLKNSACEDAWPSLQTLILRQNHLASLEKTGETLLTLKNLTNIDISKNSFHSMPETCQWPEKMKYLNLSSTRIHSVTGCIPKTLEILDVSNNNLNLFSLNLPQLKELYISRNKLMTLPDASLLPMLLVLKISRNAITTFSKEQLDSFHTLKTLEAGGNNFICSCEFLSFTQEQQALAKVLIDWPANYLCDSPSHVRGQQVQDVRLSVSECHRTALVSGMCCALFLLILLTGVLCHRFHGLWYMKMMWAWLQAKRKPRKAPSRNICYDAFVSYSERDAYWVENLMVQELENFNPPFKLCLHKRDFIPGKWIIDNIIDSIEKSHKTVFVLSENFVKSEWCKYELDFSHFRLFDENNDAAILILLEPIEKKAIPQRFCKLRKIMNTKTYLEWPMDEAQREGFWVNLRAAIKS", "T2 sequence (Q9Y2C9 32-796 partner)": "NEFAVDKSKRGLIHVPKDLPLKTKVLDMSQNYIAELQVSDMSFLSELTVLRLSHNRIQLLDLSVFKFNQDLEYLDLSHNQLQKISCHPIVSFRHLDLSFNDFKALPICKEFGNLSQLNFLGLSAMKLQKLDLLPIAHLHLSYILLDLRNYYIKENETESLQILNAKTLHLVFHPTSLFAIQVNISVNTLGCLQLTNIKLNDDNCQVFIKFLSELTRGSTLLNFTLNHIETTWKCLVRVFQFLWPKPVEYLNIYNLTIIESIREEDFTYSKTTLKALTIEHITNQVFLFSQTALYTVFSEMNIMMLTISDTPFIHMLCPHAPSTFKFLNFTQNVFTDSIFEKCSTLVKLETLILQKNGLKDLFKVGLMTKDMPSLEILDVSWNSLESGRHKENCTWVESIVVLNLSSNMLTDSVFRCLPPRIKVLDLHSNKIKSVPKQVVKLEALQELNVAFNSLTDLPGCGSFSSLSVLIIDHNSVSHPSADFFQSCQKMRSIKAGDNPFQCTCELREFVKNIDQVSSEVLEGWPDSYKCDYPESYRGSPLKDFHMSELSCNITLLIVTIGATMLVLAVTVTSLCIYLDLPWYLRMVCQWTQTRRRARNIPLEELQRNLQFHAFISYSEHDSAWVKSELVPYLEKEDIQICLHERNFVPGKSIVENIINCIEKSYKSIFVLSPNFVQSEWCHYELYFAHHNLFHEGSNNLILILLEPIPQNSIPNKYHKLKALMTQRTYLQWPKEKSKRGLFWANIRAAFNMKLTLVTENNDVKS", "test": "HEK293 cells transfected with human TLR2, CD14 (MD-2) and SEAP reporter", "format": "cell-based", "details": "for HEK cell activation versus DMSO vehicle (stimulated/nonstimulated ratio): 24 h, MMP 0.2 μg/ml, LTA 2 μg/ml, lipid 654 and lipid 430 0.69 μg/ml, P<0.05; for Activation of human TLR2 in HEK cells: HPLC fractions of P. gingivalis total lipids; for Effect of pretreatment with anti-human TLR2 antibody on HEK-TLR2 cell activation: antibody 10 μg/mL 1 hour, MMP 0.1 μg/ml, LTA 1 μg/ml, lipid 430 and lipid 654 0.69 μg/ml", "from_the_text": "In vitro effects, human cells: HEK293 cells (human embryonic kidney cells) transfected with the human TLR2 and SEAP (secreted embryonic alkaline phosphatase) genes, were used to assay the function of Lipid 654 in vitro. The HEK cells, which naturally express variable levels of TLRs 1, 3, 5, 6, 7 and 9, were also transfected with the gene for CD14. CD14 is a co-receptor that enhances TLR2 responses. Additionally, TLR2 responses are most often mediated via another co-receptor which, in most cases, is either TLR1 or TLR6. The SEAP reporter gene is under the control of the IFN-β minimal promoter fused to five NF-κB and AP-1-binding sites. Stimulation with a TLR2 ligand activates NF-κB and AP-1 which induce the production of SEAP which is then quantitated as a colorimetric change in the presence of a detection medium.\nLipid 654, solubilized in 50% DMSO in water, and two documented TLR2 agonists, MMP and lipotechoic acid (LTA), were incubated for 24 hours with the HEK cells in the presence or absence of antibodies to TLR2 and TLR6.\nas §1\nTo determine the ability of P. gingivalis lipids to activate human cells via TLRs, the total lipids of P. gingivalis were fractionated by HPLC, and an aliquot of each fraction was dried and dissolved in 50% DMSO in water. Each HPLC fraction was then tested for cell activation by using HEK293 cells stably transfected with human TLR2, CD14, MD-2, and SEAP genes. In addition, the HEK293 cells naturally express variable levels of TLRs 1, 3, 5, 6, 7, and 9. The SEAP reporter gene is under the control of the beta interferon minimal promoter fused to five NF-κB and AP-1 binding sites. Stimulation with a TLR2 ligand activates NF-κB and AP-1, which induces the production of SEAP. SEAP is then quantitated via a colorimetric change in medium samples following the addition of a suitable enzyme substrate. Using this cell screen for human TLR2 engagement, each HPLC lipid fraction was screened for cell activation."}, "TLR2": {"target": "T3, TLR2 (Mus musculus, UniProt Q9QUN7)", "T3 construct": "endogenous in cells; host or cells: mouse bone cells", "T3 sequence (Q9QUN7 25-784)": "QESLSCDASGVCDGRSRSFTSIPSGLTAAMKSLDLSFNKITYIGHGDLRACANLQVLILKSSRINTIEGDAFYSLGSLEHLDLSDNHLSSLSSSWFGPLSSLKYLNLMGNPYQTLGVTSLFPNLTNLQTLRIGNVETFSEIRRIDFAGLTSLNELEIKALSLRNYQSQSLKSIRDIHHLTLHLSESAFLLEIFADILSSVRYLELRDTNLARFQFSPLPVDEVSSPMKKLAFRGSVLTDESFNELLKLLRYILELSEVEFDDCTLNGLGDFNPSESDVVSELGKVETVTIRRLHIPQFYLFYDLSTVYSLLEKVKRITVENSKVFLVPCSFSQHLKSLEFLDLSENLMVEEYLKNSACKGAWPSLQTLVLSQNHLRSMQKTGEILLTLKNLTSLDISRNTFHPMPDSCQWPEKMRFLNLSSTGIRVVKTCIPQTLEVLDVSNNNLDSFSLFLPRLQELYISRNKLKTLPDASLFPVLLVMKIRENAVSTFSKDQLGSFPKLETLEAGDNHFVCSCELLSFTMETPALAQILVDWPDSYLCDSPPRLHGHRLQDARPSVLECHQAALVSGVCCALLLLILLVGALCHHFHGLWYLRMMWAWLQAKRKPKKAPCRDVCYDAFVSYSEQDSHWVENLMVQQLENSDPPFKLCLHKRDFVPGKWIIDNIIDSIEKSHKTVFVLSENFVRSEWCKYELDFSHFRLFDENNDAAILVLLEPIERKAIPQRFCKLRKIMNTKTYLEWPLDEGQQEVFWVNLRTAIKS", "T3 sequence (Q9EPW9 28-795 partner)": "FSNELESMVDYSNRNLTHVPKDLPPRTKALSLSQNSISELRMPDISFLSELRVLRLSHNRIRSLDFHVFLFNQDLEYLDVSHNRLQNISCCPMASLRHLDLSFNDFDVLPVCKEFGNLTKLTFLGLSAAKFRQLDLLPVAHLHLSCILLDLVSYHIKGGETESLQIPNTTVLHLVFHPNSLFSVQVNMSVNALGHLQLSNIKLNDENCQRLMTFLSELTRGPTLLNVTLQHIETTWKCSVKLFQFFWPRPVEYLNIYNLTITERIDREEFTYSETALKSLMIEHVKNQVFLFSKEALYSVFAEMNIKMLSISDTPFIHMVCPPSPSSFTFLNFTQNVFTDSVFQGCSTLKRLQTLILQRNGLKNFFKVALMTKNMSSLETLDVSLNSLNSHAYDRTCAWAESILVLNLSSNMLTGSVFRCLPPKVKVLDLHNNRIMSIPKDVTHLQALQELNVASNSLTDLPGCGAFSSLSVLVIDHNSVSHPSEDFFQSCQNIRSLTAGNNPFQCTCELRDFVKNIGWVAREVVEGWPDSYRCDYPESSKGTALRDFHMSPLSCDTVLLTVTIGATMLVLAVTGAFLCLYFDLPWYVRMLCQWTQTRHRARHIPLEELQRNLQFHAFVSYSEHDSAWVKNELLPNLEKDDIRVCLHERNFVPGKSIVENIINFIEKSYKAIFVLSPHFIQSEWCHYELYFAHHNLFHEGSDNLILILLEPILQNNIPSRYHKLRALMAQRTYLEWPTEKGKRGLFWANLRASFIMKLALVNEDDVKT", "test": "TLR2 engagement in mouse bone cells", "format": "cell-based", "from_the_text": "Phospholipase A2 enzymes are recovered in all tissues and levels of this enzyme are increased in association with virtually all chronic inflammatory diseases. In fact, phospholipase A2 inhibitors are being used to treat atherosclerosis, multiple sclerosis, and a variety of other conditions. Phospholipase A2 hydrolyzes glycerol phospholipids so that the ester linked fatty acid in the #2 carbon position of glycerol is released, but only for a glycerol ester linkage in the L enantiomeric configuration. Phospholipase A2 will not hydrolyze fatty acid linked in the D enantiomeric form of glycerol."}, "TLR4": {"system": "TLR4", "details": "Gomi et al., J Immunol. 2002; cited from earlier work"}, "female SJL mice with EAE": {"system": "female SJL mice with EAE", "test": "EAE by transfer of PLP-stimulated lymph node lymphocytes into SJL mice", "format": "in vivo, mouse", "details": "2 ng of Lipid 654 intravenously on day of cell transfer; 30 days; 5 mice; p=0.0006", "experimental": "Female SJL mice were injected intra-peritoneally with 30×10^6 4-day in-vitro-activated proteolipid protein (PLP)-stimulated lymph node lymphocytes and on the same day injected intravenously with either phosphate buffered saline (PBS) (vehicle control=“VC”) or 2 ng of Lipid 654. Mice were followed for 30 days for development of EAE and scored as 1=tail paralysis; 2=abnormal gait; 3=paralyzed hind legs; 4=paralyzed front and hind legs; 5=death. The results in FIG. 21 depict the daily mean for 5 mice injected with the VC and 5 mice injected with Lipid 654. […] Thus, MS patients can be treated directly with Lipid 654 or with commensal bacteria that produce increased amounts of Lipid 654."}}, "note": "Entries after “also recorded” stand apart in the source; their conditions may differ."}
{"smiles": "CC(C)CCCCCCCCCCCC(O)CC(=O)NCC(=O)N[C@@H](CO)C(=O)O", "note": "(stereo partly shown) [Lipid 430]", "values": [{"measurement": "Serum levels of CCL2", "setting": "CCL2; TLR2−/− mice, lipid 430 2.5 μg i.v. in PBS", "value": "failed to do so"}, {"measurement": "Serum levels of CCL2", "setting": "CCL2; WT mice, lipid 430 2.5 μg i.v. in PBS", "value": "induced a significant increase in serum levels of CCL2"}, {"measurement": "Activation of TLR4-expressing HEK293 cells", "setting": "human TLR4", "value": "showed no capacity to activate the TLR4-expressing cell line"}, {"measurement": "HEK cell activation versus DMSO vehicle (stimulated/nonstimulated ratio)", "setting": "human TLR2", "value": "promoted significant HEK cell activation over the control cells; also recorded: significantly elevated over the DMSO vehicle"}, {"measurement": "Activation of human TLR2 in HEK cells", "setting": "human TLR2; 24 hours", "value": "activates HEK cells through TLR2; also recorded: show the capacity to activate human TLR2 in HEK cells"}, {"measurement": "Effect of pretreatment with anti-human TLR2 antibody on HEK-TLR2 cell activation", "setting": "human TLR2; 24 hours", "value": "significantly inhibited by pretreatment with anti-human TLR2 antibody"}, {"measurement": "Potency in engaging TLR2 relative to the Lipid 654 preparation", "setting": "TLR2", "value": "at least ten fold more potent"}, {"measurement": "TLR2 agonism", "setting": "TLR2; Lipid 430 released with PLA2 treatment of Lipid 654", "value": "strong TLR2 agonist"}]}
{"smiles": "CC(C)CCCCCCCCCCCC(=O)O[C@H](CCCCCCCCCCCC(C)C)CC(=O)NCC(=O)NC(CO)C(=O)O", "note": "(stereo partly shown) [Flavolipin]", "values": [{"measurement": "Innate immune activation via TLR4", "setting": "TLR4", "value": "acting as an agonist for TLR4"}]}
{"smiles": "CC(C)CCCCCCCCCCCC(=O)OC(CCCCCCCCCCCC(C)C)CC(=O)NCC(=O)N[C@@H](CO)C(=O)O", "note": "(stereo partly shown) [Lipid 654]", "values": [{"measurement": "Hydrolysis to Lipid 430 by other common lipase enzymes", "setting": "phospholipase A2 (PLA2); BLE, PLC, LL, PLD, CVF, 3 days", "value": "no other common lipase enzymes"}, {"measurement": "Hydrolysis by phospholipase A2 enzymes", "setting": "phospholipase A2 (PLA2); porcine pancreas PLA2 96 U/ml or honey bee venom PLA2 120 U/ml, 3 days", "value": "is hydrolyzed by phospholipase A2 (PLA2) enzymes"}, {"measurement": "Portion not hydrolyzed by PLA2", "setting": "phospholipase A2 (PLA2); repeated treatment with PLA2", "value": "Approximately half"}, {"measurement": "Serum levels of CCL2", "setting": "CCL2; TLR2−/− mice, lipid 654 1 μg i.p. in 50% DMSO", "value": "failed to do so"}, {"measurement": "Serum levels of CCL2", "setting": "CCL2; WT mice, lipid 654 1 μg i.p. in 50% DMSO", "value": "induced a significant increase in serum levels of CCL2"}, {"measurement": "Activation of TLR4-expressing cell line", "setting": "human TLR4; Example 17, LPS derived from P. gingivalis, two preparations of Lipid 654", "value": "showed no ability to activate the TLR4-expressing cell line"}, {"measurement": "Activation of TLR4-expressing HEK293 cells", "setting": "human TLR4", "value": "showed no capacity to activate the TLR4-expressing cell line"}, {"measurement": "HEK cell activation versus DMSO vehicle (stimulated/nonstimulated ratio)", "setting": "human TLR2", "value": "promoted significant HEK cell activation over the control cells; also recorded: significantly elevated over the DMSO vehicle"}, {"measurement": "Effect of anti-TLR2 and anti-TLR6 antibodies on NF-κB activation", "setting": "human TLR2; Example 17, 24 hours", "value": "inhibited by anti-TLR2 and anti-TLR6 antibodies"}, {"measurement": "NF-κB activation (SEAP)", "setting": "human TLR2; Example 17, 24 hours, no antibodies", "value": "demonstrated NF-κB-activation"}, {"measurement": "Activation of human TLR2 in HEK cells", "setting": "human TLR2; 24 hours", "value": "show the capacity to activate human TLR2 in HEK cells"}, {"measurement": "Effect of pretreatment with anti-human TLR2 antibody on HEK-TLR2 cell activation", "setting": "human TLR2; 24 hours", "value": "significantly inhibited by pretreatment with anti-human TLR2 antibody"}, {"measurement": "Course of EAE compared to vehicle control", "setting": "female SJL mice with EAE", "value": "significantly inhibited the course of EAE"}]}
